From patent publication US20160166604A1, “Thiol-Sensitive Positive Inotropes” (priority 2005, published 2016)
Entries after “also recorded” stand apart in the source; their conditions may differ.

Tests used:
[1] = system: isolated mouse ventricular myocytes; assay: Sarcomere shortening in field-stimulated isolated mouse ventricular myocytes; format: cell-based
Protocol: Wild type 2-4 month old mice were anesthetized with intraperitoneal pentobarbital sodium (100 mg/kg/ip). Hearts were perfused as previously described. Mongillo, M. et al., Circ. Res., 98, 226-234 (2006). To assess for sarcomere shortening, cells were imaged using field stimulation (Warner instruments) in an inverted fluorescence microscope (Diaphot 200; Nikon, Inc). Sarcomere length was measured by real-time Fourier transform (IonOptix MyoCam, CCCCD100M) and cell twitch amplitude is expressed as a percentage of resting cell length. Twitch kinetics was quantified by measuring the time to peak shortening and the time from peak shortening to 50% relaxation. For whole calcium transient measurements, myocytes were loaded with the Ca^2+ indicator fluo-4/AM (Molecular Probes, 20 μM for 30 min) and Ca^2+ transients were measured under field-stimulation at 0.5 Hz in perfusion solution by confocal laser scanning microscope (LSM510, Carl Zeiss). Digital image analysis used customer-designed programs coded in Interactive Data Language (IDL).
Nitroxyl (HNO) confers positive inotropy in vivo. Here, it was determined whether HNO action stems from a direct influence on sarcoplasmic reticulum (SR) Ca^2+ cycling, involving enhanced Ca^2+ release from ryanodine receptors (RyR2). Myocytes were isolated from ST mice, suspended in Tyrode's solution (1 mM Ca^2+) and field stimulated (0.5 Hz, 25° C.). Sarcomere shortening (SS) was assessed by real-time image analysis, Ca^2+ transients from Indo-1 fluorescence. RyR2 activity was determined by optical imaging of Ca^2+ release from single Ca^2+ release units.

[2] = End-diastolic pressure-volume relationship (EDPVR) in chronically instrumented dogs with pacing-induced cardiac failure; format: in vivo; details: CHF dog preparations
Protocol: Adult male mongrel dogs (22-25 kg) were chronically instrumented for pressure-dimension analysis as described. See, Paolocci et al., “Positive Inotropic and Lusitropic Effects of HNO/NO− in Failing Hearts: Independence from Beta-Adrenergic Signaling,” Proc. Natl. Acad. Sci. USA., 100, 5537-5542 (2003); and Senzaki et al., Circulation, 101, 1040-1048 (2000). Animals were anesthetized with 1% to 2% halothane after induction with sodium thiopental (10-20 mg/kg, i.v.). The surgical/experimental animal protocol was approved by the Johns Hopkins University Animal Care and Use Committee. […] Cardiac failure was induced by rapid ventricular pacing for 3 weeks as described. See, Paolocci et al., supra, and Senzaki et al., supra.
Hemodynamic data were digitized at 250 Hz. […] These relations strongly correlate with results from pressure-volume data in normal and failing hearts, as previously validated. Cardiovascular function was assessed by stroke dimension, fractional shortening (stroke dimension/end-diastolic dimension [EDD]), estimated cardiac output (stroke dimension×HR), peak rate of pressure rise (dP/dtmax), end-systolic elastance (Ees, slope of end-systolic pressure-dimension relation [ESPDR]), the slope of dP/dtmax-EDD relation (DEDD) (see, Little, Circ Res., 56:808-815 (1985)), pre-recruitable stroke work (PRSW), (based on dimension-data), estimated arterial elastance (Ea, end systolic pressure/stroke dimension) and estimated total resistance (RT, […]). Ees, DEDD and PRSW provide load-insensitive contractility measures.
The end-diastolic pressure-volume relationship (EDPVR) was determined applying non-linear regression analysis to the end-diastolic pressure and volume points (Ped and Ved, respectively), according to Kass, Cardiol Clin., 18, 571-86 (2000) (Review).
In order to evaluate the impact of each pharmacological intervention on the EDPVR, changes in end-diastolic pressure from baseline (ΔPed) at volumes providing baseline end-diastolic pressure of […] mmHg EDP (V10, V15, V20, respectively) were determined (FIG. 5).

[3] = system: cardiac myocytes from WT and Gαq overexpressing FVB/N mice; assay: Sarcomere shortening in cardiac myocytes from WT and Gαq overexpressing mice; format: cell-based, mouse; details: for enhancement of sarcomere shortening: WT cells
Protocol: Cardiac myocytes were isolated from WT and Gαq overexpressing 2-6 month old FVB/N mice, suspended in Tyrode's solution (1 mM calcium) and field stimulated at 0.5 Hz at 23° C. Sarcomere shortening (SS) was assessed by real-time image analysis; data are presented at steady-state (10 minutes drug infusion).

RyR2 = molecular target: T1, RyR2 (Mus musculus, UniProt E9Q401); assay: Spontaneous Ca2+ sparks and spark frequency in intact murine myocytes; format: cell-based; details: for effect on Ca2+ sparks in control and AS (0.5 mM) cells: thapsigargin 10 μM, 30 min, ryanodine 10 μM
T1 construct: endogenous in cells; host or cells: freshly isolated adult mouse cardiac myocytes
Protocol: Freshly isolated mouse cardiac myocytes were loaded with the Ca^2+ indicator fluo-4/AM (Molecular Probes, 20 μM for 30 min). Confocal images were acquired using a confocal laser-scanning microscope (LSM510, Carl Zeiss) with a Zeiss Plan-Neofluor 40× oil immersion objective (NA≈1.3). Fluo-4/AM was excited by an argon laser (488 nm), and fluorescence was measured at >505 nm. Images were taken in the line-scan mode, with the scan line parallel to the long axis of the myocytes. Each image consisted of 512 line scans obtained at 1.92 ms intervals, each comprising 512 pixels at 0.10 μm separation. Digital image analysis used customer-designed programs coded in Interactive Data language (IDL) and a modified spark detection algorithm. Cheng, H. et al., Biophys. J., 76, 606-617 (1999).
Nitroxyl (HNO) confers positive inotropy in vivo. Here, it was determined whether HNO action stems from a direct influence on sarcoplasmic reticulum (SR) Ca^2+ cycling, involving enhanced Ca^2+ release from ryanodine receptors (RyR2). Myocytes were isolated from ST mice, suspended in Tyrode's solution (1 mM Ca^2+) and field stimulated (0.5 Hz, 25° C.). Sarcomere shortening (SS) was assessed by real-time image analysis, Ca^2+ transients from Indo-1 fluorescence. RyR2 activity was determined by optical imaging of Ca^2+ release from single Ca^2+ release units. The HNO donor Angeli's Salt (AS) induced dose-dependent inotropy (SS: 73±31% at 0.5 mM; 131±31% at 1 mM; all n=15, p<0.05 vs. base; <0.1 mM: no effect). In contrast, the NO donor DEA/NO reduced SS by 55-65% at 5-50 μM (both p<0.05 vs. base), with no effect at higher doses. […] However, co-infusion with the thiol-donating compound N-acetyl-L-cysteine (NAC, 3 mM) abolished AS inotropy.

SR Ca2+ pump (SERCA2a) = molecular target: T2, SR Ca2+ pump (SERCA2a) (Mus musculus, UniProt O55143); assay: ATP-dependent Ca2+ uptake by murine cardiac SR vesicles (stopped-flow, arsenazo III); format: biochemical
T2 construct: Crude cardiac microsomal vesicles containing fragmented sarcoplasmic reticulum (SR) were prepared; from tissue; host or cells: pooled hearts of C57 male mice (crude SR microsomal vesicles)
Protocol: Crude cardiac microsomal vesicles containing fragmented sarcoplasmic reticulum (SR) were prepared as previously described for rat heart. Froehlich, J. P. et al., J. Mol. Cell. Cardiol., 10, 427-438 (1978). Pooled hearts from C57 male mice sacrificed by cervical dislocation were placed in 0.9% saline on ice, trimmed of atrial and connective tissue, and weighed. The finely minced heart muscle was homogenized in 10 mM NaHCO3 using a Polytron blender and the SR vesicles were separated from the myofilaments, mitochondria and nuclear membranes by differential centrifugation at 8,500 and 45,000×g. SR vesicles suspended in 0.25 M sucrose+10 mM MOPS, pH 7.0 were frozen and stored in liquid nitrogen prior to use. Twenty minutes prior to measuring Ca^2+ uptake, cardiac SR vesicles (1 mg/ml in storage buffer) were incubated with 250 μM AS delivered from a freshly-prepared 10 mM stock solution of AS (Na2N2O3) dissolved in 10 mM NaOH. […] Stopped-flow mixing was used to measure the initial time course of Ca^2+ accumulation by murine cardiac SR vesicles using the Ca^2+ indicator dye, arsenazo III. Membrane vesicles (0.4 mg/ml) suspended in a medium containing 100 mM KCl, 1 mM MgCl2, 50 μM arsenazo III, 5 mM sodium azide, and 20 mM MOPS, pH 7.4, were mixed with an equal volume of an identical medium containing 1 mM Na2ATP at 24° C. in a manually-operated stopped-flow apparatus (Applied Photophysics, Ltd.). The change in [Ca^2+] in the mixing cuvette was monitored using a single-beam UV-VIS spectrophotometer (AVIV, Model 14DS) with a monochromator setting of 650 nm. The total [Ca^2+] in the uptake medium was 0.5 μM, yielding a free [Ca^2+] in equilibrium with the Ca-arsenazo III complex of 0.2 μM (KA=3.3×10^4 M^−1). […] The time-dependent decrease in absorbance at 650 nm, reflecting Ca^2+ uptake by the SR vesicles, was monitored for 30-60 s at 0.1 s intervals. […] The signal change due to vesicle light scattering was evaluated from separate measurements conducted under identical conditions at the isosbestic wavelength of 693 nm. For evaluation of the time course of Ca^2+ uptake, a representative trace at 693 nm was subtracted from each of the individual traces at 650 nm acquired under identical conditions. The kinetic and thermodynamic parameters for Ca^2+ uptake were evaluated by fitting stopped-flow signals to one- and two-exponential decay functions plus a residual term using non-linear regression (Prism, Version 3.03). Residual plots of the difference between the fitted curve and data points were used to evaluate systematic errors in the fits and to calculate the sum-of-squares error used in selecting the best fit.
To test whether HNO directly enhances SR Ca^2+ uptake, its effects on SR membrane vesicles isolated from pooled C57/Bl6 mouse hearts were studied. Crude SR microsomal vesicles were incubated with 250 μM AS prior to measuring ATP-dependent Ca uptake by stopped-flow mixing at 24° C. Arsenazo III, a mid-range Ca indicator, was used to monitor Ca removal from the eravesicular compartment and buffer the free [Ca^2+] at a level producing half-saturation of the Ca^2+ pump (˜0.2 μM).

T1 sequence (E9Q401 whole entry): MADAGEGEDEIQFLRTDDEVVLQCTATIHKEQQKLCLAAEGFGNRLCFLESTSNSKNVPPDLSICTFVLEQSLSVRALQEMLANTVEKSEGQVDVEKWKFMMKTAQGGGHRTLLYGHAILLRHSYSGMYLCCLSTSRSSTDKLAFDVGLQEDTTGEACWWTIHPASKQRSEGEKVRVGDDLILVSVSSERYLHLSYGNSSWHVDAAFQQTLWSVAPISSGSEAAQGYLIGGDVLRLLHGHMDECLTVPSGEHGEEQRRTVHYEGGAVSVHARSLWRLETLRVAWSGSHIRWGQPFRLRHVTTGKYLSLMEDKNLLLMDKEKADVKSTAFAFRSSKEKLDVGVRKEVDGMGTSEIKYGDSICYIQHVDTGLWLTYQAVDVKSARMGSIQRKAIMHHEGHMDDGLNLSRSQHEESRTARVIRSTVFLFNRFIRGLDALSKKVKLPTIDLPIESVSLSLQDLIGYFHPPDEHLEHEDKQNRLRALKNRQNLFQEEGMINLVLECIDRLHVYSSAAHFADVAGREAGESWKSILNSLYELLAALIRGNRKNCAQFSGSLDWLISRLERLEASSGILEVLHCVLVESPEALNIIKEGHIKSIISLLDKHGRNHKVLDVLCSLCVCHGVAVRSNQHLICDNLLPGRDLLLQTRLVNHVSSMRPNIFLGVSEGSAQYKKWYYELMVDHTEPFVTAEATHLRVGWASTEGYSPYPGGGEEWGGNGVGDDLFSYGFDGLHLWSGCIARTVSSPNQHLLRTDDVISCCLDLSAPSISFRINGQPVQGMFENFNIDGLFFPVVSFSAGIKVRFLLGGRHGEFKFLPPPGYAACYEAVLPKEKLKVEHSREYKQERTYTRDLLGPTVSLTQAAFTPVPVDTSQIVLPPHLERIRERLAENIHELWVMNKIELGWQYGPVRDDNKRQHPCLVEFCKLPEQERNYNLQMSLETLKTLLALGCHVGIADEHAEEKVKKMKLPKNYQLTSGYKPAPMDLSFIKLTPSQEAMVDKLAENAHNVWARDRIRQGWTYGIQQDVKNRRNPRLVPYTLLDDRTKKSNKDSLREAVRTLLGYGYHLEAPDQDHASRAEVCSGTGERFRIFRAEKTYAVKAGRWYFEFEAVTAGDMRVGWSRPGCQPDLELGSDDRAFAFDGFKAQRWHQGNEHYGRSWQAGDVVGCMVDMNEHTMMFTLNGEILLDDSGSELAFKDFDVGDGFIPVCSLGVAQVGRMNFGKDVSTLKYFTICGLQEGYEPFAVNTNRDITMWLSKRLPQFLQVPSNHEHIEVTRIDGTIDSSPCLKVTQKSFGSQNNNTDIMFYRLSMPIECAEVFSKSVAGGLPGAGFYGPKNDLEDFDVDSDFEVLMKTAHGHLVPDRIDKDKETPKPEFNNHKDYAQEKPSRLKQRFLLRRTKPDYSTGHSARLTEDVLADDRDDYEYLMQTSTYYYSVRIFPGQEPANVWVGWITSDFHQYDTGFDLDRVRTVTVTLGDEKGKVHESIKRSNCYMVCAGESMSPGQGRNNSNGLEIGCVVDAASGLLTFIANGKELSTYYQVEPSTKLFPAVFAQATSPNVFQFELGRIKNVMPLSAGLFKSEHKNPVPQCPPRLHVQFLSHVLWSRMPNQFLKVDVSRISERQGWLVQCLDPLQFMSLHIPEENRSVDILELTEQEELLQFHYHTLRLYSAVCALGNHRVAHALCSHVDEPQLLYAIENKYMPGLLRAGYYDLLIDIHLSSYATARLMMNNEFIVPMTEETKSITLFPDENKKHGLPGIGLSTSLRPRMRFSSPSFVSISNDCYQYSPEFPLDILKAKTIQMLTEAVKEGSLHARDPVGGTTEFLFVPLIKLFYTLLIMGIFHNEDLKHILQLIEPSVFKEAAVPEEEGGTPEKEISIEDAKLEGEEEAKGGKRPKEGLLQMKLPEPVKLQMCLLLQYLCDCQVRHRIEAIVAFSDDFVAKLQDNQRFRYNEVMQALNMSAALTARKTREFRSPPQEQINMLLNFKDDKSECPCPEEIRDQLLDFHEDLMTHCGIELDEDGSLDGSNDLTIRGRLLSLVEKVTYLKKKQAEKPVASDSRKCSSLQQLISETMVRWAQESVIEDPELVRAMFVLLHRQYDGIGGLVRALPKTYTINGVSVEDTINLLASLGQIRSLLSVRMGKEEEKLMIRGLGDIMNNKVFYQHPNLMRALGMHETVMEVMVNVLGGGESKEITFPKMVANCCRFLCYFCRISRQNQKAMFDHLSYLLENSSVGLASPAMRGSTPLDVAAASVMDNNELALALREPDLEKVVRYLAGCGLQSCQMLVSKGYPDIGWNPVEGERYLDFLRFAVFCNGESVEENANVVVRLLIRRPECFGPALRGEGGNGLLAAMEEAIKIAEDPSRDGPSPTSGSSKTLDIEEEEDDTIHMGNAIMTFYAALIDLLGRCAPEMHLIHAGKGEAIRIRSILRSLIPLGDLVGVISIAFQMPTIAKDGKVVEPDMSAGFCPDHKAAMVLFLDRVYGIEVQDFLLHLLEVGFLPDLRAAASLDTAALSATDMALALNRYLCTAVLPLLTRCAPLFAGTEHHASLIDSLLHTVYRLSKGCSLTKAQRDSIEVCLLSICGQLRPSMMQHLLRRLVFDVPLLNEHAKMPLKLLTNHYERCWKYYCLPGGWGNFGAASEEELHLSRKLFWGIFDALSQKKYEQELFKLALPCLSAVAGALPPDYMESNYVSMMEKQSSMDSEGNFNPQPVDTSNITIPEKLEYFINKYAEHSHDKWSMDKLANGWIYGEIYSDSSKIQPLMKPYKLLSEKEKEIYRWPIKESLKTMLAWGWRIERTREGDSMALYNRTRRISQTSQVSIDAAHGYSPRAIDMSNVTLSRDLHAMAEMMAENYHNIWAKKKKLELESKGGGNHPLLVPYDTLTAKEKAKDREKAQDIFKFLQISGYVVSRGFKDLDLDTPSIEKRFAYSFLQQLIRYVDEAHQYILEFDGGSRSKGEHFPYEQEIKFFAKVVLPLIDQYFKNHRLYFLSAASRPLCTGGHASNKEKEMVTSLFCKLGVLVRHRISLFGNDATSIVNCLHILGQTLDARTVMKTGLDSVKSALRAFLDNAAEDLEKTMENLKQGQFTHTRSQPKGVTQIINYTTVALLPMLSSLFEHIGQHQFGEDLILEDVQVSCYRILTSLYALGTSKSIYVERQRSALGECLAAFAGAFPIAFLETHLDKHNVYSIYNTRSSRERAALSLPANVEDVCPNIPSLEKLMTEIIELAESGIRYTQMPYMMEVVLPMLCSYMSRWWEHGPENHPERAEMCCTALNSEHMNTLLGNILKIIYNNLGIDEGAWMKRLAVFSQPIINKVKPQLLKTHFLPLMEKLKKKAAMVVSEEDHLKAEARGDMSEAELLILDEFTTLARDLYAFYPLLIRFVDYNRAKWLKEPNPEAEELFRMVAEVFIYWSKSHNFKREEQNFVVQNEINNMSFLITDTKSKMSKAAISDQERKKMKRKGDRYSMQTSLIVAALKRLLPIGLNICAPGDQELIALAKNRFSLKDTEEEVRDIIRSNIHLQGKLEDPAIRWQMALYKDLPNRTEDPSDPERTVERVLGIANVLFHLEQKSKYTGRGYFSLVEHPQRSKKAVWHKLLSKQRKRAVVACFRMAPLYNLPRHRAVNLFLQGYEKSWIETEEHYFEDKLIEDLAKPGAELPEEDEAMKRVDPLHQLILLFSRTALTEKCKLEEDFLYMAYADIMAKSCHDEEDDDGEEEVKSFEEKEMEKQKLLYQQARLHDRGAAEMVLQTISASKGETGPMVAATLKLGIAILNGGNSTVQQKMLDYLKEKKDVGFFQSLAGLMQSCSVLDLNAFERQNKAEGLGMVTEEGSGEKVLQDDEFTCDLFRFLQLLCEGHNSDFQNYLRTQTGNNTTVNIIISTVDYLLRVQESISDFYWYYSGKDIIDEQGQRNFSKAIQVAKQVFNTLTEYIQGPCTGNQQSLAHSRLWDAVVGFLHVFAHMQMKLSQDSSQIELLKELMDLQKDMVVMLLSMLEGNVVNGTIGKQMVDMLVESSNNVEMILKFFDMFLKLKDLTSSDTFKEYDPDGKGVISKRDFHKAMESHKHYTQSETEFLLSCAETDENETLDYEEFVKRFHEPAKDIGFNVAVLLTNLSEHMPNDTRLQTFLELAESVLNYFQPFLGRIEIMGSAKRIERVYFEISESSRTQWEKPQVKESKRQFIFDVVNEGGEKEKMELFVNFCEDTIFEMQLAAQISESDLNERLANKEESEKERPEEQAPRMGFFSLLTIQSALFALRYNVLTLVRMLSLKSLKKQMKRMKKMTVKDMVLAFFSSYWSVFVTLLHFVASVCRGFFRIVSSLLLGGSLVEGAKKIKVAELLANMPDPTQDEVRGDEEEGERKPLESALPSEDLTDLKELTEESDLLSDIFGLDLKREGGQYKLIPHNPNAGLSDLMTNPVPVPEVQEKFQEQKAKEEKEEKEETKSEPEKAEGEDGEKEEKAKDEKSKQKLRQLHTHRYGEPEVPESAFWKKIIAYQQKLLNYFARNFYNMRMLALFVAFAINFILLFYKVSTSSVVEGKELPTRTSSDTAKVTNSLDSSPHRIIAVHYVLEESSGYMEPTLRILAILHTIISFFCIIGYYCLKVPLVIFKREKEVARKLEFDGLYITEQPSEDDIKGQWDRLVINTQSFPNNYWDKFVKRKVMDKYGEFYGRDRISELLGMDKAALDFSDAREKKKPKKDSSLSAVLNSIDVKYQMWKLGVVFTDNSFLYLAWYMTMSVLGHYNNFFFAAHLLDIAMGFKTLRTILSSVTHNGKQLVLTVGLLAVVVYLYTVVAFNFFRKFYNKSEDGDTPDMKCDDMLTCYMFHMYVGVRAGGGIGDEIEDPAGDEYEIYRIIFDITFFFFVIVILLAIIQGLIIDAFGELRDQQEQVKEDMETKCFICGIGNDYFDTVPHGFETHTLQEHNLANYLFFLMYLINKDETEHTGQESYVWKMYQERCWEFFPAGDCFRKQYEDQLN

## O=NO [NO2^−, nitrite]
[1]; 25-250 μM NO2- and higher or lower doses
  effect on sarcomere shortening: no effect

## CC(C)N[N+]([O-])=N[O-].[Na+] [IPA/NO, isopropylamine diazeniumdiolate]
[2]
  effect on end-diastolic pressure-volume relationship (EDPVR): downward shift; also recorded: declined significantly

## C=C[C@@]1(C)CC(=O)[C@]2(O)[C@@]3(C)[C@@H](O)CCC(C)(C)[C@@H]3[C@H](O)[C@H](OC(C)=O)[C@@]2(C)O1 [FSK, forskolin]
[3]; Gαq myocytes, 25 nM FSK
  increase in sarcomere shortening: 85±9%
[3]; Gαq myocytes, 100 nM FSK
  increase in sarcomere shortening: 158±62%

## O=[N+]([O-])OCC(CO[N+](=O)[O-])O[N+](=O)[O-] [NTG, nitroglycerin]
[2]
  effect on end-diastolic pressure-volume relationship (EDPVR): parallel down-ward shift
[2]; listed as nitroglycerin
  effect on end-diastolic pressure-volume relationship (EDPVR): parallel downward shift

## C/C=C(/C)C(=O)O[C@H]1C(C)=C2[C@H]([C@@H]1OC(=O)CCCCCCC)[C@@](C)(OC(C)=O)C[C@H](OC(=O)CCC)[C@@]1(O)[C@H]2OC(=O)[C@@]1(C)O [thapsigargin]
RyR2
  effect on Ca2+ sparks in control and AS (0.5 mM) cells: abolished
SR Ca2+ pump (SERCA2a); thapsigargin 10 μM
  effect on SR vesicle Ca2+ uptake: abolished

## ryanodine
RyR2
  effect on Ca2+ sparks in control and AS (0.5 mM) cells: abolished

## CNc1ccc2oc(C[C@H]3O[C@@]4(CC[C@H]3C)O[C@H]([C@H](C)C(=O)c3ccc[nH]3)[C@H](C)C[C@H]4C)nc2c1C(=O)O [A23187]
SR Ca2+ pump (SERCA2a); A23187 pre-incubation, 5 μg ionophore/mg SR protein
  decrease of total Ca2+ uptake: > 50%

## CC(C)NCC(O)c1ccc(O)c(O)c1 (centres unmarked) [ISO, isoproterenol]
[1]; ISO 2.5 nM, n=30
  increase in sarcomere shortening: 100±27%
[1]; Rp-CPT-cAMPs 100 μM pre-treatment
  effect of PKA inhibitor Rp-CPT-cAMPs on the agent's enhancement of sarcomere shortening: blunts
[3]; Gαq myocytes, ISO 2.5 and 10 nM
  contractile response: did not elicit any contractile response
[3]; ISO 2.5 nM
  enhancement of sarcomere shortening: 74±24%
[3]; ISO 10 nM
  enhancement of sarcomere shortening: 250±75%

## CCN(CC)[N+]([O-])=N[O-].[Na+] [DEA/NO, sodium 2-(N,N-diethylamino)-diazenolate-2-oxide]
RyR2; DEA/NO, increasing / equimolar doses
  effect on Ca2+ spark frequency: no effect; also recorded: did not significantly affect
[1]; DEA/NO 0.25 mM, AS 0.5 mM
  effect of co-application on ISO (2.5 nM)-stimulated sarcomere shortening: markedly blunted
[1]; DEA/NO 5-50 μM
  reduction of sarcomere shortening: 55-65%
[1]; Rp-8Br-cGMPs 10 μM pre-treatment
  effect of PKG inhibitor Rp-8Br-cGMPs on the agent's inotropy: modest positive response
[1]; equimolar to AS
  reproduction of AS increase in sarcomere shortening by equimolar NO donor: not reproduced
[1]; higher doses
  effect on sarcomere shortening: no effect; also recorded: minimal changes
[1]; low doses
  effect on sarcomere shortening: slight depression
[2]
  effect on end-diastolic pressure-volume relationship (EDPVR): parallel down-ward shift
